Earlier results on 1 compound are cited in patent publication US9485971B2, “Fumarylacetoacetate hydrolase (Fah)-deficient pigs and uses thereof” (May Foundation for Medical Education and Research, priority 2010, dated 2016).

This data set has as its system Fah-deficient mice.

In the case of `O=C1CCCC(=O)C1C(=O)c1ccc(C(F)(F)F)cc1[N+](=O)[O-]` [NTBC, 2-(2-nitro-4-trifluoro-methyl-benzoyl)-1,3 cyclohexanedione], the “phenotype at suboptimal doses of NTBC” value (Fah-/- mice, suboptimal doses) was “develop HCC and fibrosis”. Where the note is “Fah-deficient mice treated with NTBC”, the “effect on liver function and neonatal lethality” value is “restores liver function and abolishes neonatal lethality”. For the same compound, the “hepatocellular carcinoma penetrance rate” value (suboptimal NTBC dose of 0.2 mg/kg/day, mice, within the first six months of life) is “exceeding 50%”.
